The numbers were not newly measured in patent publication US20040006111A1, “Transmucosal delivery of proton pump inhibitors” (priority 2002, published 2004), which cites them from elsewhere.

[1] abbreviates: omeprazole buccal adhesive tablets (sodium alginate, HPMC, magnesium oxide, croscarmellose sodium), absorption through the buccal mucosa.

`COc1ccc2[nH]c([S+]([O-])Cc3ncc(C)c(OC)c3C)nc2c1` (stereo not drawn) [omeprazole]: the bioavailability entry (omeprazole buccal adhesive tablet formulation of Choi et al.) is recorded as “low”. Besides, under setting [1], the peak plasma concentration was 370 ng/mL and the “time to generate peak plasma concentration” value is 45 min.
